Patent publication US12534700B2, “Beneficial microbes for delivery of effector peptides or proteins and use thereof” (priority 2016, dated 2026)

Experiments:
tobacco leaves [1] = details: peptides described in prior applications; cited from earlier work
[2] = Confirmation of soluble protein in bacterial cell lysates; type: physicochemical; details: B. subtilis lysate, Bugbuster plus lysozyme, 20,000 g for 10 minutes at 4° C.
Protocol: Fluorescent colonies from Example 3 were inoculated into 5 ml cultures of LB medium supplemented with 10 ug/ml Kanamycin and grown for 2 days with 170 rpm shaking at 37° C. Cells were harvested by centrifugation (5000 g for 15 minutes at 4° C.). The culture was decanted away from the cell pellet. The cell pellets were resuspended in 1 ml each of Bugbuster Protein Extraction Reagent (EMD Millipore, Billerica, MA, USA) supplemented with 200 ug/ml of lysozyme. Lysis was allowed to proceed for 20 minutes at room temperature (20° C.). The lysates were centrifuged at 20,000 g for 10 minutes at 4° C. to separate soluble from insoluble proteins.

tobacco leaves [3] = test: Hypersensitive response test of purified Fresno-p5-21 infused into tobacco leaves; type: in vivo; details: after 2 days
Protocol: The production and purification procedure of Examples 4 and 5 were scaled up to 1 L to produce a quantity of protein appropriate for hypersensitive response elicitation in tobacco leaves.
Briefly, 1 L of LB culture media was supplemented with 10 ug/ml Kanamycin and cells were grown as in Example 3 for 2 days in a baffled flask. Cells were harvested at 6000 g for 20 minutes at 4° C. Culture supernatant was removed from the cells and the cells were resuspended in 20 ml of Bugbuster Protein Extraction Reagent supplemented with 50 ug/ml lysozyme. The sample was gently rocked at room temperature for 30 minutes and then frozen on liquid nitrogen and stored at −80° C.
The sample was thawed on ice and a 1/50 volume of 500 mM imidazole was added for a final concentration of 10 mM imidazole. 8 ml of the sample was mixed with 2 ml of settled Ni-NTA agarose resin (5-Prime) end-over-end for 2 hours at 4° C. The column was then settled for 20 minutes and allowed to flow by gravity. The flowthrough was collected. The resin was washed with 5 column volumes of 50 mM sodium phosphate, 15 mM imidazole, 200 mM NaCl. Finally, the protein was eluted with 250 mM imidazole, pH 7.5. […] The protein concentration was quantified by UV/Vis spectroscopy using a Nanodrop 2000 (Thermo Fisher Scientific, Waltham, MA, USA). […]

| Molecule | induction of a hypersensitive response (tobacco leaves [1]) | solubility of recombinant protein (colour of lysate supernatant) [2] | hypersensitive response (lesions typical of HR) (tobacco leaves [3]; 1× concentration (about 100 ug/ml protein)) | hypersensitive response (lesions typical of HR) (tobacco leaves [3]; 2× dilution) |
| --- | --- | --- | --- | --- |
| SAGSEQQLDLLLMFIMMMLQQ [P5] | capable of inducing a hypersensitive response |  |  |  |
| SEEEEQLDOLLLAFIAAALQQ (SEEEEQLDQLLLAFIAAALQQ; P5-25) | does not |  |  |  |
| SAGSEQQLDQLLLMFIMMMLQQ [P5a] | capable of inducing a hypersensitive response |  |  |  |
| SEEQLELLLAFIAAALQQEE [P5-21] | capable of inducing a hypersensitive response |  |  |  |
| Fresno-P5-21: Red fluorescent protein Fresno fused at C-terminus to harpin peptide P5-21 and 6×His tag, SEQ ID NO: 13 (protein) MNSLIKENMHMKLYMEGTVNNHHFKCTSEGEGKPYEGTQTMRIKVVEGGPLPFAFDILATSFMYGSRTFIKYPKGIPDFFKQSFPEGFTWERVTRYEDGGVVTATQDTSLEDGCLVYHVQVRGVNFPSNGPVMQKKTLGWEPNTEMLYPADGGLEGRSDMALKLVGGGHLSCSFVTTYRSKKTVGNIKMPGIHAVDHRLVRIKEADKETYVEQHEVAVAKFAGLGGGMDELYKSEEQLELLLAFIAAALQQEESRHHHHHH |  | soluble | caused lesions | caused lesions |
